The record followed here is US11884710B2, “Peptide compounds and methods of use in wound healing” (priority 2013, dated 2024).

Common to all, as to format: in vivo
The test system of experiment [1] is full thickness excisional wounds. The experiment in a line: Histopathology of swine dermal wounds. The conditions noted are these: for epidermal resurfacing and maturation vs saline control, in words: day 14 post-wounding; for Angiogenesis, mean histopathology score / Epithelization, mean histopathology score / Granulation, mean histopathology score / Inflammation, mean histopathology score: wounds harvested on day 14, 3 mg/ml. Further details: Inflammation, mean histopathology score / Angiogenesis, mean histopathology score / Granulation, mean histopathology score / Epithelization, mean histopathology score: scale not given here. The method, then:
The characteristics that were measured are required to indicate features of a well-healed wound. Inflammation should be low and re-epithelialization high.
(§1) Full thickness excisional wounds were induced on the dorsum of swine (N=3) using a 1.0 cm biopsy punch. Treatments were administered (0.20 ml) to each wound (N=6 wounds per group), and the wounds were dressed with standard occlusive dressing ([…]™, 3M Corporation, St. Paul, Minn.). Treatments were reapplied daily and dressings changed. Clinical wound healing observations and wound area (2 mm) measurements were performed on days 0, 3, 5, 7, 10, and 14 post-wounding. Wound area (2 mm) data were expressed as percentage (%) of wound healing. Animals were terminated on day 14 with wounds harvested and processed for histological evaluation. […] All peptide formulation treatment groups healed faster with greater rate of closure and re-epithelialization over time, as compared to the saline control (Group A).
The histology correlated with the clinical observations. […] There were minimal differences in the amount or character of granulation tissue, inflammation, and angiogenesis. All the wounds were well filled and vascularized.

Experiment [2] shares this test system. The experiment in a line: Swine full thickness excisional dermal wound model. The settings on record: for Mean Wound Healing (%): topical 3 mg/ml, 0.20 ml daily; for percentage of wound healing vs saline control, in words: 3 mg/ml. The method, then: In this Example, peptide compounds of the presently disclosed inventive concepts were evaluated as to their activity on the dermal wound healing process in a clinically relevant swine full thickness excisional wound model. Three different peptide formulations (Group B, Peptide 95-122 (SEQ ID NO:26); Group C, Peptide 120-146WH (SEQ ID NO:31); and Group D, Peptide 120-146QH-5RMP (SEQ ID NO:33)) were each evaluated at the same concentration (3 mg/ml). Sterile saline served as the control (Group A).
as §1

The test system of experiment [3] is P. aeruginosa (ATCC 27853). Kind of experiment: Mouse model of Pseudomonas (bacterial) keratitis. The conditions noted are these: 48 hours post-infection. The method, then: A circular wound was created on the mouse cornea by removing the epithelium and infected with 10^5 colony forming units (CFU) of P. aeruginosa (ATCC® 27853™ (American Type Culture Collection, Manassas, Va.)). Infected wounds were treated with saline (0.9% sodium chloride, vehicle control) or saline containing indicated concentrations of peptide every 15 minutes for 2 hours, then every 30 minutes for 3 hours on the first day. Infected wounds were treated twice on the second day and once on the third day. Mice were killed at 48 hours post-infection, and CFU/eye were quantified. The means were plotted and are representative of 5 to 9 mice per group. Mann Whitney test was performed for each group as compared to the saline control group. *P=0.014. In compound names such as BCC02-5RMP used herein, “R” represents arginine, and “MP” represents a small PEG molecule as defined elsewhere herein (such as, for example but not by way of limitation, “AEEP”).
(§2) A circular wound was created on the mouse cornea by removing the epithelium, and the wound was infected with 10^5 CFU of P. aeruginosa (ATCC® 27853™ (American Type Culture Collection, Manassas, Va.)). Infected wounds were treated with saline or saline containing indicated concentrations (2, 5, 10, and 20 mg/ml) of peptide every 30 minutes for 6 hours on the first day. Infected wounds were treated twice on the second day and once on the third day. Mice were killed at 48 hours post-infection, and the CFU/eye were quantified. The means are plotted and are representative of 5 mice per group. Mann Whitney test was performed for each group as compared to the saline control group. *P=0.015 and **P=0.097.
as §2, with “representative of 4 to 5 mice” for “representative of 5 mice”, “control group.” for “control group. *P=0.015 and **P=0.097.”
as §2, with “group. **P=0.0079 by” for “group.”, “test” for “test was performed for each group”, “group.” for “group. *P=0.015 and **P=0.097.”
A circular wound (2 mm) was created on the mouse cornea by removing the epithelium and infecting the wound with 10^5 CFU of P. aeruginosa (ATCC® 27853™ (American Type Culture Collection, Manassas, Va.)). Infected wounds were treated with saline or saline containing indicated concentrations of peptide every 15 minutes for 2 hours, then every 30 minutes for 3 hours on the first day. […] Mice were killed at 48 hours post-infection, and the colony forming units per eye (CFU/eye) were quantified. […]

As to “GTRCQVAGWGSWHSGGRLSRFPRFVNV (derivative of peptide of CAP37 protein) [Peptide 120-146WH]”, the “epidermal resurfacing and maturation vs saline control, in words” value in experiment [1] was “greater extent of epidermal resurfacing and maturation of the epidermis”. Also, in experiment [1], the “Angiogenesis, mean histopathology score” value is 1.7. The “Epithelization, mean histopathology score” value in experiment [1] is reported as 3.7. The “Granulation, mean histopathology score” value in experiment [1] stood at 4.0. Also, the “Inflammation, mean histopathology score” value in experiment [1] is 0.5. Further, the “Mean Wound Healing (%)” value in experiment [2] (Day 0) came out at 0.0%; in experiment [2] (Day 3), 22.1%; in experiment [2] (Day 5) it was 35.9%; in experiment [2] (Day 7), 59.7%; in experiment [2] (Day 10), 93.5%; in experiment [2] (Day 14), 97.5%. Besides, the “percentage of wound healing vs saline control, in words” value in experiment [2] (days 10 and 14 post-wounding) is reported as “significant (p<0.05) increase in the percentage of wound healing”. In experiment [3] (topical doses of 10 and 20 mg/ml), the “CFU/eye vs saline, in words” value is “significantly reduced the CFU/eye”.
For the sequence “GTRCQVAGWGSWRSGGRLSRFPRFVNV (derivative of peptide of Homo sapiens CAP37 protein) [Peptide 120-146WR]”, in experiment [3] (topical 5, 10, and 20 mg/ml), the “infection (CFU/eye) vs saline, in words” value is on record as “significantly reduced infection”.
With “LDREANLTSSVTILPLPLQNATVEAGTR (listed as Homo sapiens) [Peptide 95-122]”, the “epidermal resurfacing and maturation vs saline control, in words” value in experiment [1] is “greater extent of epidermal resurfacing and maturation of the epidermis”. Also, the “Angiogenesis, mean histopathology score” value in experiment [1] is recorded as 2.3. In addition, the “Epithelization, mean histopathology score” value in experiment [1] is listed as 4.0. Besides, in experiment [1], the “Granulation, mean histopathology score” value is given as 4.0. Besides, the “Inflammation, mean histopathology score” value in experiment [1] is given as 0.5. Also, the “Mean Wound Healing (%)” value amounted to 0.0% in experiment [2] (Day 0); 28.9% in experiment [2] (Day 3); 41.5% in experiment [2] (Day 5); 70.8% in experiment [2] (Day 7); 99.7% in experiment [2] (Day 10); 100.0% in experiment [2] (Day 14). Also, the “percentage of wound healing vs saline control, in words” value in experiment [2] (days 5, 7, 10, and 14) is given as “significant (p<0.05) increase in the percentage of wound healing”.
